Laboratory results published in patent US10273228B2, “Hepatitis B viral assembly effectors” (Indiana University Research and Technology Corporation, priority 2015, dated 2019).

Key:
[1] = test system: HBV viral load, AD38 cells; experiment: Activity of test compounds on viral production from AD38 cells (viral load by quantitative PCR of the core sequence in supernatant); format: cell-based, Hepatitis B virus; details: Hepatitis B virus, 144 h, 10 μM compound, 6 days at 37° C., vs DMSO control wells; Table 6; read-out: AD38 Viral Load (CpAM/DMSO %) at 10 μM
Method: (§1) AD38 cells were then re-suspended with 10 mL of treatment medium and counted. Wells of a collagen coated 96-well NUNC microtiter plate were seeded at 50,000/well in 180 μL of treatment medium, and 20 μL of either 10% DMSO (Control) or a 10× solution of test compound in 10% DMSO in treatment media was added for a final compound concentration 1, 3, or 10 μM (1.0% final [DMSO]) and plates were incubated for 6 days at 37° C.
Subsequently viral load production was assayed by quantitative PCR of the core sequence. Briefly, 5 μL of clarified supernatant was added to a PCR reaction mixture that contained forward primers HBV-f 5′-CTGTGCCTTGGGTGGCTTT-3′, Reverse primers HBV-r 5′-[…]-3′ and Fluorescent TaqMan™ Probes HBV-probe 5′-FAM/AGCTCCAAA/ZEN/[…]/3IABkFQ-3′ in Quanta Biosciences PerfeCTa® qPCR Toughmix®, and was subsequently on an Applied Biosystems VIIA7 in a final volume of 20 μL. The PCR mixture was incubated at 45° C. for 5 minutes, then 95° C. for 10 min, followed by 40 cycles of 10 seconds at 95° C. and 20 seconds at 60° C. Viral load was quantitated against known standards by using ViiA™ 7 Software. Viral load in the supernatant from wells with treated cells were compared against viral load in supernatant from DMSO control wells (≥3 per plate).

AD38 cells = experiment: AD38 viability normalized to DMSO control; format: cell-based; details: 10 μM compound, vs DMSO control; Table 6
Method: as §1

## COc1ccc(S(=O)(=O)N2CCN(c3nc(C)cc(Nc4ccncc4)n3)CC2)cc1 [Compound 1240]
[1]
  activity at 10 µM: 46%
AD38 cells
  AD38 Viability Normalized Result (CPAM/DMSO %) at 10 μM: 102%

## COc1ccc(S(=O)(=O)N2CCN(c3nc(Nc4ccc(C)cc4)cc(N4CCSCC4)n3)CC2)cc1 [Compound 1241, 2-(4-((4-methoxyphenyl)sulfonyl)piperazin-1-yl)-6-thiomorpholino-N-(p-tolyl) pyrimidin-4-amine]
[1]
  activity at 10 µM: 65%
AD38 cells
  AD38 Viability Normalized Result (CPAM/DMSO %) at 10 μM: 98%

## COc1ccc(S(=O)(=O)N2CCN(c3nc(Nc4ccc(C)cc4)cc(-c4nccs4)n3)CC2)cc1 [Compound 1242]
[1]
  activity at 10 µM: 30%
AD38 cells
  AD38 Viability Normalized Result (CPAM/DMSO %) at 10 μM: 103%

## CNc1cc(Nc2ccc(C)cc2)nc(N2CCN(S(=O)(=O)c3ccc(OC)cc3)CC2)n1 [Compound 1243]
[1]
  activity at 10 µM: 32%
AD38 cells
  AD38 Viability Normalized Result (CPAM/DMSO %) at 10 μM: 109%

## Cc1ccc(Nc2cc(C)nc(N3CCN(S(=O)(=O)c4ccc(N)nc4)CC3)n2)cc1 [Compound 1245]
[1]
  activity at 10 µM: 70%
AD38 cells
  AD38 Viability Normalized Result (CPAM/DMSO %) at 10 μM: 99%

## COc1ccc(S(=O)(=O)N2CCN(c3nc(Nc4ccc(C)cc4)cc(-n4nccn4)n3)CC2)cc1 [Compound 1247]
[1]
  activity at 10 µM: 6%
AD38 cells
  AD38 Viability Normalized Result (CPAM/DMSO %) at 10 μM: 98%

## COc1ccc(S(=O)(=O)N2CCN(c3nc(Nc4ccc(C)cc4)cc(N(C)C(C)C)n3)CC2)cc1 [Compound 1248]
[1]
  activity at 10 µM: 8%
AD38 cells
  AD38 Viability Normalized Result (CPAM/DMSO %) at 10 μM: 33%

## COc1ccc(S(=O)(=O)N2CCN(c3nc(Nc4ccc(C)cc4)cc(NC(C)(C)C)n3)CC2)cc1 [Compound 1249]
[1]
  activity at 10 µM: 31%
AD38 cells
  AD38 Viability Normalized Result (CPAM/DMSO %) at 10 μM: 65%

## COc1ccc(S(=O)(=O)N2CCN(c3nc(Nc4ccc(C)cc4)cc(-c4ccccn4)n3)CC2)cc1 [Compound 1250, 2-(4-((4-methoxyphenyl)sulfonyl)piperazin-1-yl)-6-(pyridin-2-yl)-N-(p-tolyl) pyrimidin-4-amine]
[1]
  activity at 10 µM: 56%
AD38 cells
  AD38 Viability Normalized Result (CPAM/DMSO %) at 10 μM: 101%

## COc1ccc(S(=O)(=O)N2CCN(c3nc(NCCN(C)C)cc(Nc4ccc(C)cc4)n3)CC2)cc1 [Compound 1251]
[1]
  activity at 10 µM: 60%
AD38 cells
  AD38 Viability Normalized Result (CPAM/DMSO %) at 10 μM: 56%

## Cc1ccc(Nc2cc(C)nc(N3CCN(S(=O)(=O)c4ccncc4)CC3)n2)cc1 [Compound 1258]
[1]
  activity at 10 µM: 50%
AD38 cells
  AD38 Viability Normalized Result (CPAM/DMSO %) at 10 μM: 105%

## Cc1ccc(Nc2cc(C)nc(N3CCN(S(=O)(=O)c4cnc(N)nc4)CC3)n2)cc1 [Compound 1260]
[1]
  activity at 10 µM: 78%
AD38 cells
  AD38 Viability Normalized Result (CPAM/DMSO %) at 10 μM: 98%

## COc1ccc(S(=O)(=O)N2CCN(c3nc(C)cc(Nc4ncc(C)cn4)n3)CC2)cc1 [Compound 1261]
[1]
  activity at 10 µM: 87%
AD38 cells
  AD38 Viability Normalized Result (CPAM/DMSO %) at 10 μM: 98%

## COc1ccc(S(=O)(=O)N2CCN(c3nc(Nc4ccc(C)cc4)cc(OCCO)n3)CC2)cc1 [Compound 1265, 2-((2-(4-((4-methoxyphenyl)sulfonyl)piperazin-1-yl)-6-(p-tolylamino)pyrimidin-4-yl)oxy) ethan-1-ol]
[1]
  activity at 10 µM: 13%
AD38 cells
  AD38 Viability Normalized Result (CPAM/DMSO %) at 10 μM: 102%

## COc1ccc(S(=O)(=O)N2CCN(c3nc(Nc4ccc(C)cc4)cc(N(C)C(C)(C)C)n3)CC2)cc1 [Compound 1273, N^4-(tert-butyl)-2-(4-((4-methoxyphenyl)sulfonyl)piperazin-1-yl)-N^4-methyl-N^6-(p-tolyl) pyrimidine-4,6-diamine]
[1]
  activity at 10 µM: 16%
AD38 cells
  AD38 Viability Normalized Result (CPAM/DMSO %) at 10 μM: 98%

## COc1ccc(S(=O)(=O)N2CCN(c3nc(Nc4ccc(C)cc4)cc(-c4ncc[nH]4)n3)CC2)cc1 [Compound 1274, 6-(1H-imidazol-2-yl)-2-(4-((4-methoxyphenyl)sulfonyl)piperazin-1-yl)-N-(p-tolyl) pyrimidin-4-amine]
[1]
  activity at 10 µM: 19%
AD38 cells
  AD38 Viability Normalized Result (CPAM/DMSO %) at 10 μM: 92%

## COc1ccc(S(=O)(=O)N2CCN(c3nc(Nc4ccc(C)cc4)cc(-n4cnnc4)n3)CC2)cc1 [Compound 1282, 2-(4-((4-methoxyphenyl)sulfonyl)piperazin-1-yl)-N-(p-tolyl)-6-(4H-1,2,4-triazol-4-yl) pyrimidin-4-amine]
[1]
  activity at 10 µM: 22%
AD38 cells
  AD38 Viability Normalized Result (CPAM/DMSO %) at 10 μM: 99%

## Cc1ccc(Nc2cc(C)nc(N3CCN(S(=O)(=O)c4cc(C(=O)Nc5cc(F)c(F)c(F)c5)ccc4F)CC3)n2)cc1 [Compound 1286, 4-fluoro-3-((4-(4-methyl-6-(p-tolylamino)pyrimidin-2-yl)piperazin-1-yl)sulfonyl)-N-(3,4,5-trifluorophenyl) benzamide]
[1]
  activity at 10 µM: 2%
AD38 cells
  AD38 Viability Normalized Result (CPAM/DMSO %) at 10 μM: 86%

## CC(C)c1cc(Oc2ccc(F)cc2)nc(N2CCN(S(=O)(=O)c3cccc(C(F)(F)F)c3)CC2)n1 [Compound 1287]
[1]
  activity at 10 µM: 77%
AD38 cells
  AD38 Viability Normalized Result (CPAM/DMSO %) at 10 μM: 98%

## Cc1ccc(S(=O)(=O)N2CCN(c3nc(Oc4ccc(F)cc4)cc(C(C)C)n3)CC2)cc1 [Compound 1288]
[1]
  activity at 10 µM: 102%
AD38 cells
  AD38 Viability Normalized Result (CPAM/DMSO %) at 10 μM: 105%

## CN(C)c1cc(Oc2ccc(F)cc2)nc(N2CCN(S(=O)(=O)c3cccc(C(F)(F)F)c3)CC2)n1 [Compound 1289]
[1]
  activity at 10 µM: 55%
AD38 cells
  AD38 Viability Normalized Result (CPAM/DMSO %) at 10 μM: 105%

## Cc1ccc(S(=O)(=O)N2CCN(c3nc(Oc4ccc(F)cc4)cc(N(C)C)n3)CC2)cc1 [Compound 1290]
[1]
  activity at 10 µM: 62%
AD38 cells
  AD38 Viability Normalized Result (CPAM/DMSO %) at 10 μM: 105%

## CC(C)c1cc(Oc2ccc(F)cc2)nc(N2CCN(S(=O)(=O)c3ccc(F)cc3)CC2)n1 [Compound 1295]
[1]
  activity at 10 µM: 84%
AD38 cells
  AD38 Viability Normalized Result (CPAM/DMSO %) at 10 μM: 101%

## CC(C)c1cc(Oc2ccc(F)cc2)nc(N2CCN(S(=O)(=O)c3ccc(C(F)(F)F)cc3)CC2)n1 [Compound 1296]
[1]
  activity at 10 µM: 102%
AD38 cells
  AD38 Viability Normalized Result (CPAM/DMSO %) at 10 μM: 103%

## CN(C)c1cc(Oc2ccc(F)cc2)nc(N2CCN(S(=O)(=O)c3ccc(F)cc3)CC2)n1 [Compound 1297]
[1]
  activity at 10 µM: 59%
AD38 cells
  AD38 Viability Normalized Result (CPAM/DMSO %) at 10 μM: 103%

## CN(C)c1cc(Oc2ccc(F)cc2)nc(N2CCN(S(=O)(=O)c3ccc(C(F)(F)F)cc3)CC2)n1 [Compound 1298]
[1]
  activity at 10 µM: 100%
AD38 cells
  AD38 Viability Normalized Result (CPAM/DMSO %) at 10 μM: 97%

## CN(C)c1cc(Oc2ccc(F)cc2)nc(N2CCN(S(=O)(=O)c3ccccc3)CC2)n1 [Compound 1299]
[1]
  activity at 10 µM: 54%
AD38 cells
  AD38 Viability Normalized Result (CPAM/DMSO %) at 10 μM: 112%

## CC(C)c1cc(Oc2ccc(F)cc2)nc(N2CCN(S(=O)(=O)c3ccccc3)CC2)n1 [Compound 1301]
[1]
  activity at 10 µM: 63%
AD38 cells
  AD38 Viability Normalized Result (CPAM/DMSO %) at 10 μM: 102%

## CN(C)c1cc(Nc2ccc(F)cc2)nc(N2CCN(S(=O)(=O)c3ccc(F)cc3)CC2)n1 [Compound 1302]
[1]
  activity at 10 µM: 52%
AD38 cells
  AD38 Viability Normalized Result (CPAM/DMSO %) at 10 μM: 112%

## CN(C)c1cc(Nc2ccc(F)cc2)nc(N2CCN(S(=O)(=O)c3ccc(C(F)(F)F)cc3)CC2)n1 [Compound 1303]
[1]
  activity at 10 µM: 14%
AD38 cells
  AD38 Viability Normalized Result (CPAM/DMSO %) at 10 μM: 35%

## CN(C)c1cc(Nc2ccc(F)cc2)nc(N2CCN(S(=O)(=O)c3ccccc3)CC2)n1 [Compound 1304]
[1]
  activity at 10 µM: 48%
AD38 cells
  AD38 Viability Normalized Result (CPAM/DMSO %) at 10 μM: 113%

## CN(C)c1cc(Nc2ccc(F)cc2)nc(N2CCN(S(=O)(=O)c3cccc(C(F)(F)F)c3)CC2)n1 [Compound 1305]
[1]
  activity at 10 µM: 4%
AD38 cells
  AD38 Viability Normalized Result (CPAM/DMSO %) at 10 μM: 6%

## Cc1ccc(S(=O)(=O)N2CCN(c3nc(Nc4ccc(F)cc4)cc(N(C)C)n3)CC2)cc1 [Compound 1306]
[1]
  activity at 10 µM: 22%
AD38 cells
  AD38 Viability Normalized Result (CPAM/DMSO %) at 10 μM: 103%

## O=S(=O)(c1ccc(F)cc1)N1CCN(c2nc(Oc3ccc(F)cc3)cc(-n3cnnc3)n2)CC1 [Compound 1307]
[1]
  activity at 10 µM: 84%
AD38 cells
  AD38 Viability Normalized Result (CPAM/DMSO %) at 10 μM: 94%

## O=S(=O)(c1ccc(C(F)(F)F)cc1)N1CCN(c2nc(Oc3ccc(F)cc3)cc(-n3cnnc3)n2)CC1 [Compound 1308]
[1]
  activity at 10 µM: 63%
AD38 cells
  AD38 Viability Normalized Result (CPAM/DMSO %) at 10 μM: 88%

## O=S(=O)(c1cccc(C(F)(F)F)c1)N1CCN(c2nc(Oc3ccc(F)cc3)cc(-n3cnnc3)n2)CC1 [Compound 1309]
[1]
  activity at 10 µM: 26%
AD38 cells
  AD38 Viability Normalized Result (CPAM/DMSO %) at 10 μM: 67%

## Cc1ccc(S(=O)(=O)N2CCN(c3nc(Oc4ccc(F)cc4)cc(-n4cnnc4)n3)CC2)cc1 [Compound 1310]
[1]
  activity at 10 µM: 50%
AD38 cells
  AD38 Viability Normalized Result (CPAM/DMSO %) at 10 μM: 81%

## O=S(=O)(c1ccccc1)N1CCN(c2nc(Oc3ccc(F)cc3)cc(-n3cnnc3)n2)CC1 [Compound 1311]
[1]
  activity at 10 µM: 66%
AD38 cells
  AD38 Viability Normalized Result (CPAM/DMSO %) at 10 μM: 86%

## O=S(=O)(c1ccc(F)cc1)N1CCN(c2nc(Nc3ccc(F)cc3)cc(-n3cnnc3)n2)CC1 [Compound 1312]
[1]
  activity at 10 µM: 31%
AD38 cells
  AD38 Viability Normalized Result (CPAM/DMSO %) at 10 μM: 96%

## O=S(=O)(c1cccc(C(F)(F)F)c1)N1CCN(c2nc(Nc3ccc(F)cc3)cc(-n3cnnc3)n2)CC1 [Compound 1313]
[1]
  activity at 10 µM: 47%
AD38 cells
  AD38 Viability Normalized Result (CPAM/DMSO %) at 10 μM: 93%

## O=S(=O)(c1ccccc1)N1CCN(c2nc(Nc3ccc(F)cc3)cc(-n3cnnc3)n2)CC1 [Compound 1314]
[1]
  activity at 10 µM: 36%
AD38 cells
  AD38 Viability Normalized Result (CPAM/DMSO %) at 10 μM: 94%
